Test results from patent publication US5378696A, “Rapamycin esters” (American Home Products Corporation, priority 1993, dated 1995).
≈ marks a conversion by molar mass, not a printed value. Where a name gives a salt, the structure may show the parent alone. Read-outs that look alike come from different tables or passages of the source.

Tests used:
[1] = tested on: lymphocyte proliferation, cells from the thymus of normal BALB/c mice (PHA and IL-1); assay: comitogen-induced thymocyte proliferation procedure (LAF); format: cell-based; conditions: ratio, thymocytes 72 hours with PHA and IL-1, rapamycin 1.0
Protocol: (§1) Immunosuppressive activity was evaluated in an in vitro standard pharmacological test procedure to measure lymphocyte proliferation (LAF) and in two in vivo standard pharmacological test procedures. The first in vivo procedure was a popliteal lymph node (PLN) test procedure which measured the effect of compounds of this invention on a mixed lymphocyte reaction and the second in vivo procedure evaluated the survival time of a pinch skin graft.
Briefly, cells from the thymus of normal BALB/c mice are cultured for 72 hours with PHA and IL-1 and pulsed with tritiated thymidine during the last six hours. […] Cells are harvested and incorporated; radioactivity is determined. inhibition of lymphoproliferation is assessed in percent change in counts per minute from non-drug treated controls. The results are expressed by the following ratio: [formula]

[2] = tested on: pinch skin graft; assay: survival time of pinch skin graft; format: in vivo, mouse (male DBA/2 donors, male BALB/c recipients); conditions: intraperitoneally, mean graft survival time ± S.D.
Protocol: as §1
The second in vivo test procedure is designed to determine the survival time of pinch skin graft from male DBA/2 donors transplanted to male BALB/c recipients. The method is adapted from Billingham R. E. and Medawar P. B., J. Exp. Biol. 28:385-402, (1951). Briefly, a pinch skin graft from the donor is grafted on the dorsum of the recipient as a homograft, and an autograft is used as control in the same region. […] Untreated recipients serve as rejection control. The graft is monitored daily and observations are recorded until the graft becomes dry and forms a blackened scab. This is considered as the rejection day. The mean graft survival time (number of days±S.D.) of the drug treatment group is compared with the control group.

[3] = tested on: Candida albicans 3669; assay: antifungal plate test procedure; format: cell-based
Protocol: (§2) The following represents the typical procedure used. Compound to be tested was placed on sterile dried 1/4" plate disks, and allowed to dry. Agar plates were seeded with fungi and allowed to solidify. The impregnated disks were placed on the seeded Agar surface and incubated for the time required for the particular culture. Results are expressed in MIC (μg/ml) to inhibit growth.

[4] = tested on: Candida albicans ATCC 10231; assay: antifungal plate test procedure; format: cell-based
Protocol: as §2

[5] = tested on: Candida albicans ATCC 38246; assay: antifungal plate test procedure; format: cell-based
Protocol: as §2

[6] = tested on: Candida albicans ATCC 38247; assay: antifungal plate test procedure; format: cell-based
Protocol: as §2

[7] = tested on: Candida albicans ATCC 38248; assay: antifungal plate test procedure; format: cell-based
Protocol: as §2

[8] = Candida albicans, 3669, strain 3669, read-out: MIC
[9] = Candida albicans, ATCC10231, ATCC 10231, read-out: MIC
[10] = Candida albicans, ATCC38246, ATCC 38246, read-out: MIC
[11] = Candida albicans, ATCC38247, ATCC 38247, read-out: MIC
[12] = Candida albicans, ATCC38248, ATCC 38248, read-out: MIC

CO[C@H]1C[C@@H]2CC[C@@H](C)[C@@](OC(=O)CCC(=O)OCc3ccccc3)(O2)C(=O)C(=O)N2CCCC[C@H]2C(=O)O[C@H]([C@H](C)C[C@@H]2CC[C@@H](OC(=O)CCC(=O)OCc3ccccc3)[C@H](OC)C2)CC(=O)[C@H](C)/C=C(\C)[C@@H](OC(=O)CCC(=O)OCc2ccccc2)[C@@H](OC)C(=O)[C@H](C)C[C@H](C)/C=C/C=C/C=C/1C [Example 1, Rapamycin-14,31,42-tris(monobenzylsuccinate)]
LAF (ratio) [1]: 0.37
Skin Graft (days + SD), mean graft survival time [2]: 8.2 ± 1.2 days
MIC [3, 8]: > 0.4 µg/mL
MIC [4, 9]: > 0.4 µg/mL
MIC [5, 10]: > 0.4 µg/mL
MIC [6, 11]: > 0.4 µg/mL
MIC [7, 12]: > 0.4 µg/mL

CO[C@H]1C[C@@H]2CC[C@@H](C)[C@@](O)(O2)C(=O)C(=O)N2CCCC[C@H]2C(=O)O[C@H]([C@H](C)C[C@@H]2CC[C@@H](OC(=O)CCC(=O)OCc3ccccc3)[C@H](OC)C2)CC(=O)[C@H](C)/C=C(\C)[C@@H](OC(=O)CCC(=O)OCc2ccccc2)[C@@H](OC)C(=O)[C@H](C)C[C@H](C)/C=C/C=C/C=C/1C [Example 2, Rapamycin-31,42-bis(monobenzylsuccinate)]
LAF (ratio) [1]: 0.9
Skin Graft (days + SD), mean graft survival time [2]: 10.7 ± 1.2 days
MIC [3, 8]: 0.4 µg/mL (≈ 0.309 µM)
MIC [4, 9]: > 0.4 µg/mL
MIC [5, 10]: 0.4 µg/mL (≈ 0.309 µM)
MIC [6, 11]: > 0.4 µg/mL
MIC [7, 12]: 0.4 µg/mL (≈ 0.309 µM)

CO[C@H]1C[C@@H]2CC[C@@H](C)[C@@](O)(O2)C(=O)C(=O)N2CCCC[C@H]2C(=O)O[C@H]([C@H](C)C[C@@H]2CC[C@@H](OC(=O)CCC(=O)OCc3ccccc3)[C@H](OC)C2)CC(=O)[C@H](C)/C=C(\C)[C@@H](O)[C@@H](OC)C(=O)[C@H](C)C[C@H](C)/C=C/C=C/C=C/1C [Example 3, Rapamycin-42-(monobenzylsuccinate)]
LAF (ratio) [1]: 3.27
Skin Graft (days + SD), mean graft survival time [2]: 12.7 ± 0.9 days
MIC [3, 8]: 0.1 µg/mL (≈ 0.0905 µM)
MIC [4, 9]: 0.2 µg/mL (≈ 0.181 µM)
MIC [5, 10]: 0.1 µg/mL (≈ 0.0905 µM)
MIC [6, 11]: 0.4 µg/mL (≈ 0.362 µM)
MIC [7, 12]: 0.1 µg/mL (≈ 0.0905 µM)

CO[C@H]1C[C@@H]2CC[C@@H](C)[C@@](O)(O2)C(=O)C(=O)N2CCCC[C@H]2C(=O)O[C@H]([C@H](C)C[C@@H]2CC[C@@H](OC(=O)CCCC(=O)O)[C@H](OC)C2)CC(=O)[C@H](C)/C=C(\C)[C@@H](OC(=O)CCCC(=O)O)[C@@H](OC)C(=O)[C@H](C)C[C@H](C)/C=C/C=C/C=C/1C [Example 4, Rapamycin-31,42-bishemiglutarate]
LAF (ratio) [1]: 0.56
Skin Graft (days + SD), mean graft survival time [2]: 10.2 ± 1.7 days
MIC [3, 8]: 0.4 µg/mL (≈ 0.35 µM)
MIC [4, 9]: > 0.4 µg/mL
MIC [5, 10]: 0.2 µg/mL (≈ 0.175 µM)
MIC [6, 11]: > 0.4 µg/mL
MIC [7, 12]: 0.2 µg/mL (≈ 0.175 µM)

CO[C@H]1C[C@@H]2CC[C@@H](C)[C@@](O)(O2)C(=O)C(=O)N2CCCC[C@H]2C(=O)O[C@H]([C@H](C)C[C@@H]2CC[C@@H](OC(=O)CCCC(=O)O)[C@H](OC)C2)CC(=O)[C@H](C)/C=C(\C)[C@@H](OC(=O)CCCC(=O)O)[C@@H](OC)C(=O)[C@H](C)C[C@H](C)/C=C/C=C/C=C/1C [Example 5, Rapamycin-31,42-hemiglutarate bissodium salt]
LAF (ratio) ([1]; bissodium salt): 0.02
Skin Graft (days + SD), mean graft survival time ([2]; bissodium salt): 8.0 ± 1.7 days
MIC ([3]; strain 3669, bissodium salt): > 0.4 µg/mL
MIC ([4]; ATCC 10231, bissodium salt): 0.4 µg/mL
MIC ([5]; ATCC 38246, bissodium salt): > 0.4 µg/mL
MIC ([6]; ATCC 38247, bissodium salt): > 0.4 µg/mL
MIC ([7]; ATCC 38248, bissodium salt): > 0.4 µg/mL

CO[C@H]1C[C@@H]2CC[C@@H](C)[C@@](O)(O2)C(=O)C(=O)N2CCCC[C@H]2C(=O)O[C@H]([C@H](C)C[C@@H]2CC[C@@H](OC(=O)CCCC(=O)O)[C@H](OC)C2)CC(=O)[C@H](C)/C=C(\C)[C@@H](OC(=O)CCCC(=O)O)[C@@H](OC)C(=O)[C@H](C)C[C@H](C)/C=C/C=C/C=C/1C [Example 6, Rapamycin-31,42-bishemiglutarate bistromethamine salt]
LAF (ratio) [1]: 0.01
Skin Graft (days + SD), mean graft survival time [2]: 8.0 ± 0.9 days
MIC ([3]; strain 3669): > 0.4 µg/mL
MIC ([4]; ATCC 10231): 0.4 µg/mL
MIC ([5]; ATCC 38246): > 0.4 µg/mL
MIC ([6]; ATCC 38247): 0.4 µg/mL
MIC ([7]; ATCC 38248): > 0.4 µg/mL

CO[C@H]1C[C@@H]2CC[C@@H](C)[C@@](O)(O2)C(=O)C(=O)N2CCCC[C@H]2C(=O)O[C@H]([C@H](C)C[C@@H]2CC[C@@H](OC(=O)COCC(=O)O)[C@H](OC)C2)CC(=O)[C@H](C)/C=C(\C)[C@@H](O)[C@@H](OC)C(=O)[C@H](C)C[C@H](C)/C=C/C=C/C=C/1C [Example 7, Rapamycin-42-hemi-3'-oxoglutarate]
LAF (ratio) [1]: 0.97
Skin Graft (days + SD), mean graft survival time [2]: 12.0 ± 1.0 days
MIC [3, 8]: 0.2 µg/mL (≈ 0.194 µM)
MIC [4, 9]: 0.1 µg/mL (≈ 0.0971 µM)
MIC [5, 10]: 0.4 µg/mL (≈ 0.388 µM)
MIC [6, 11]: 0.1 µg/mL (≈ 0.0971 µM)
MIC [7, 12]: 0.1 µg/mL (≈ 0.0971 µM)

CO[C@H]1C[C@@H]2CC[C@@H](C)[C@@](O)(O2)C(=O)C(=O)N2CCCC[C@H]2C(=O)O[C@H]([C@H](C)C[C@@H]2CC[C@@H](OC(=O)COCC(=O)O)[C@H](OC)C2)CC(=O)[C@H](C)/C=C(\C)[C@@H](OC(=O)COCC(=O)O)[C@@H](OC)C(=O)[C@H](C)C[C@H](C)/C=C/C=C/C=C/1C [Example 8]
LAF (ratio) [1]: positive ratio
MIC [3, 8]: > 0.4 µg/mL
MIC ([4]; ATCC 10231): 0.4 µg/mL (≈ 0.349 µM)
MIC [5, 10]: > 0.4 µg/mL
MIC [6, 11]: 0.4 µg/mL (≈ 0.349 µM)
MIC [7, 12]: > 0.4 µg/mL

CO[C@H]1C[C@@H]2CC[C@@H](C)[C@@](O)(O2)C(=O)C(=O)N2CCCC[C@H]2C(=O)O[C@H]([C@H](C)C[C@@H]2CC[C@@H](OC(=O)COCC(=O)O)[C@H](OC)C2)CC(=O)[C@H](C)/C=C(\C)[C@@H](OC(=O)COCC(=O)O)[C@@H](OC)C(=O)[C@H](C)C[C@H](C)/C=C/C=C/C=C/1C [Example 9, Rapamycin-31,42-bishemi-3'-oxoglutarate disodium salt]
LAF (ratio) ([1]; disodium salt): 0.22
Skin Graft (days + SD), mean graft survival time ([2]; disodium salt): 10.2 ± 1.2 days
MIC ([3]; strain 3669): > 0.4 µg/mL
MIC ([4]; ATCC 10231, disodium salt): 0.2 µg/mL
MIC ([5]; ATCC 38246): > 0.4 µg/mL
MIC ([6]; ATCC 38247, disodium salt): 0.2 µg/mL
MIC ([7]; ATCC 38248, disodium salt): 0.4 µg/mL

CO[C@H]1C[C@@H]2CC[C@@H](C)[C@@](O)(O2)C(=O)C(=O)N2CCCC[C@H]2C(=O)O[C@H]([C@H](C)C[C@@H]2CC[C@@H](OC(=O)COCC(=O)O)[C@H](OC)C2)CC(=O)[C@H](C)/C=C(\C)[C@@H](OC(=O)COCC(=O)O)[C@@H](OC)C(=O)[C@H](C)C[C@H](C)/C=C/C=C/C=C/1C [Example 10, Rapamycin-31,42-bishemi-3'-oxoglutarate bistromethamine salt]
LAF (ratio) [1]: 0.18
Skin Graft (days + SD), mean graft survival time [2]: 10.8 ± 0.8 days
MIC ([3]; strain 3669): > 0.4 µg/mL
MIC ([4]; ATCC 10231): 0.1 µg/mL
MIC ([5]; ATCC 38246): > 0.4 µg/mL
MIC ([6]; ATCC 38247): 0.2 µg/mL
MIC ([7]; ATCC 38248): 0.4 µg/mL

CO[C@H]1C[C@@H]2CC[C@@H](C)[C@@](O)(O2)C(=O)C(=O)N2CCCC[C@H]2C(=O)O[C@H]([C@H](C)C[C@@H]2CC[C@@H](OC(=O)CCC(=O)O)[C@H](OC)C2)CC(=O)[C@H](C)/C=C(\C)[C@@H](OC(=O)CCC(=O)O)[C@@H](OC)C(=O)[C@H](C)C[C@H](C)/C=C/C=C/C=C/1C [Example 11, Rapamycin-31,42-bishemisuccinate]
Skin Graft (days + SD), mean graft survival time [2]: 7.8 ± 1.7 days
MIC [3, 8]: > 0.4 µg/mL
MIC [4, 9]: > 0.4 µg/mL
MIC [5, 10]: > 0.4 µg/mL
MIC [6, 11]: > 0.4 µg/mL
MIC [7, 12]: > 0.4 µg/mL

C=CCOC(=O)CCCC(=O)O[C@@H]1CC[C@@H](C[C@@H](C)[C@@H]2CC(=O)[C@H](C)/C=C(\C)[C@@H](O)[C@@H](OC)C(=O)[C@H](C)C[C@H](C)/C=C/C=C/C=C(\C)[C@@H](OC)C[C@@H]3CC[C@@H](C)[C@@](O)(O3)C(=O)C(=O)N3CCCC[C@H]3C(=O)O2)C[C@H]1OC [Example 14, Rapamycin-42-allylglutarate]
LAF (ratio) [1]: 3.42
Skin Graft (days + SD), mean graft survival time [2]: 11.0 ± 0.0 days

C=CCOC(=O)CCCC(=O)O[C@@H]1/C(C)=C/[C@@H](C)C(=O)C[C@@H]([C@H](C)C[C@@H]2CC[C@@H](O)[C@H](OC)C2)OC(=O)[C@@H]2CCCCN2C(=O)C(=O)[C@]2(O)O[C@@H](CC[C@H]2C)C[C@H](OC)/C(C)=C/C=C/C=C/[C@@H](C)C[C@@H](C)C(=O)[C@@H]1OC [Example 15, Rapamycin-31-allylglutarate]
LAF (ratio) [1]: 0.40
Skin Graft (days + SD), mean graft survival time [2]: 9.8 ± 0.8 days
